Results on one compound are retold here after patent US20140179521A1, “COMPOSITIONS INCORPORATING HYTd” (Agrinos AS, priority 2012, published 2014).

Common to all, as to type: in vivo
Experiment [1] relates to potato variety Maris Piper. Nature of the experiment: Potato field experiment, tuber yield.
For a further experiment, the system named is Rhizoctonia solani. The experiment is described as follows: Potato field experiment, expression of Rhizoctonia solani.
The test system of another experiment is Streptomyces scabies. Nature of the experiment: Potato field experiment, expression of Streptomyces scabies. The following applies: potato Maris Piper, field plots, treatment applied at planting.
A further experiment relates to small grain cereals. Nature of the experiment: Small grain cereal replicated field experiments, grain yield. The following applies: applied topically at growth stage 37.
In a further experiment the test system is Mildew. Nature of the experiment: Small grain cereal replicated field experiments, mildew level / disease control. The settings on record: small grain cereals.
[2] abbreviates: potato Maris Piper, field plots, treatment applied at planting.
Setting [3] is: potatoes, in-furrow application, field observations.

Consider `CO/C=C(/C(=O)OC)c1ccccc1Oc1cc(Oc2ccccc2C#N)ncn1` [azoxystrobin], for which the Yield t/ha in experiment [1] (setting [2]) was 62.17 t/ha; with small grain cereals, 10.44 t/ha. Besides, the “effect on yield (in words)” value in experiment [1] (setting [3]) is on record as “little direct yield increase”. In addition, the R. solani with Rhizoctonia solani (setting [2]) was 2%. The “control of Rhizoctonia (in words)” value in the experiment on Rhizoctonia solani (setting [3]) is “high level disease control”. For the same compound, the S. scabies in the experiment with Streptomyces scabies stood at 46%. Moreover, in the experiment on Mildew, the “disease control / period of disease suppression (in words)” value was “significant levels of disease control”. For the same compound, the “Mildew level 7 days after treatment” value in the experiment with Mildew (7 days after treatment) came to 4%. Moreover, the “Mildew level 21 days after treatment” value with Mildew (21 days after treatment) was found to be 11%.
